According to ChEMBL document CHEMBL2073853, “Cholesterol interaction with the daunorubicin binding site of P-glycoprotein” (Biochem Biophys Res Commun, 2000):

Molecular target: ATP-dependent translocase ABCB1 (Homo sapiens, UniProt P08183)
Assay: TP_TRANSPORTER: increase in Daunorubicn intracellular accumulation (Daunorubicin: ? uM) in NIH-G185 cells
Assay type: functional, cell-based

Chain of ATP-dependent translocase ABCB1 (P08183 whole entry): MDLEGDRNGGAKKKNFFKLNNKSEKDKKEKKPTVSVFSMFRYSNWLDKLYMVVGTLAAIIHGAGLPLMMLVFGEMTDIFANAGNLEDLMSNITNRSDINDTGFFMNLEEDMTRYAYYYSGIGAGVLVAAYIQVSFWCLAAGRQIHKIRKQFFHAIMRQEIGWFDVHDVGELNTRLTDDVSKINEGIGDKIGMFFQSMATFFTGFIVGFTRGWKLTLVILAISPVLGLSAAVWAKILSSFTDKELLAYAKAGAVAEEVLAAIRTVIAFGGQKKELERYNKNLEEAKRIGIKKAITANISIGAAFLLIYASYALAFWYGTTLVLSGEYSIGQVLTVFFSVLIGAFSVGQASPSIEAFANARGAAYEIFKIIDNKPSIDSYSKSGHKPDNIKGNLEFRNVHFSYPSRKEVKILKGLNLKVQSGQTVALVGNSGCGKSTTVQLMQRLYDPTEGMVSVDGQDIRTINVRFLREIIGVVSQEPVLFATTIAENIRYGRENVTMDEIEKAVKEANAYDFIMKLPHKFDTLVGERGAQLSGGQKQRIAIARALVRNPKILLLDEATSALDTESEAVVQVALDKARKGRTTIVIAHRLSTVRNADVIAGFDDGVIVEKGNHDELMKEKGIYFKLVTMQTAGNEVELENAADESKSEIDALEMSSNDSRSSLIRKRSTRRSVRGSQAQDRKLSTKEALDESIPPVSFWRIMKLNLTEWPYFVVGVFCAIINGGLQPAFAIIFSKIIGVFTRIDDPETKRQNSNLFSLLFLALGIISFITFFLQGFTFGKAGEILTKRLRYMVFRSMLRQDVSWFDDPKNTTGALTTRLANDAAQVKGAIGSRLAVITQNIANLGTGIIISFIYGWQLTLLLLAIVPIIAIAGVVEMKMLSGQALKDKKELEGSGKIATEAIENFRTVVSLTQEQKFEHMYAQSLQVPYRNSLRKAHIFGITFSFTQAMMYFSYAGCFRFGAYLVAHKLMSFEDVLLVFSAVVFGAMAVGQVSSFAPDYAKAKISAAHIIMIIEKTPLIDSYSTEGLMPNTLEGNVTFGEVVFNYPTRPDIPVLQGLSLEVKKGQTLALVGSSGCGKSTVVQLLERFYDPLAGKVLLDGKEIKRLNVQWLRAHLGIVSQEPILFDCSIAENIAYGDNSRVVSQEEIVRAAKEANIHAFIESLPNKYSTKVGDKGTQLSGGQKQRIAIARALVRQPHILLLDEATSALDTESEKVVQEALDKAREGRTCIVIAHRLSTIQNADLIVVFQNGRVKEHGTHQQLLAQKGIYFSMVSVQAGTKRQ

CC(C)CCC[C@@H](C)[C@H]1CC[C@H]2[C@@H]3CC=C4C[C@@H](O)CC[C@]4(C)[C@H]3CC[C@]12C [CHOLESTEROL]
IC50: 8.2 µM
